Data taken from the supplement of paper PMC11061612.

Key:
Test in all cases: Bliss excess, mean over the matrix (fraction); higher = more synergy
[1] = tested on: SUP-T1 (T-Lymphoblastic Leukemia)
Outline: (§1)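 Cell lines grown in DMEM/F12 or RPMI with 10% FBS were plated in 1536-well plates and held 24 hours at 37°C, 5% CO2 before 72 hours of exposure to two-drug dose matrices, with DMSO typically at 0.2%. CellTiter-Glo 2.0 luminescence gave viability, which was converted to inhibition. Vehicle wells were set to 0 and blank wells to 1. Combination Emax is the second-highest inhibition in the matrix, and Bliss excess is the observed combination effect minus the expected EA + EB − EA·EB, where EA and EB are the single-agent effects.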

[2] = tested on: LU-139 (Small Cell Lung Carcinoma)
Outline: as §1

[3] = tested on: HARA (Squamous Cell Lung Carcinoma)
Outline: as §1

NCI-H28 (Mesothelioma) = tested on: NCI-H28 (Mesothelioma)
Outline: as §1

[4] = tested on: PCI-30 (Head and Neck Carcinoma)
Outline: as §1

[5] = tested on: EN (Endometrial Carcinoma)
Outline: as §1

[6] = tested on: K5 (Thyroid Gland Carcinoma)
Outline: as §1

[7] = tested on: NCI-H69 (Small Cell Lung Carcinoma)
Outline: as §1

[8] = tested on: RPMI-6666 (Non-Cancerous)
Outline: as §1

NB14 (Neuroblastoma) = tested on: NB14 (Neuroblastoma)
Outline: as §1

[9] = tested on: RT-112 (Bladder Carcinoma)
Outline: as §1

[10] = tested on: CAPAN-1 (Pancreatic Carcinoma)
Outline: as §1

SH-4 (Melanoma) = tested on: SH-4 (Melanoma)
Outline: as §1

Mewo (Melanoma) = tested on: Mewo (Melanoma)
Outline: as §1

[11] = tested on: SK-OV-3 (Ovarian Carcinoma)
Outline: as §1

[12] = tested on: RKO (Colorectal Carcinoma)
Outline: as §1

[13] = tested on: LoVo (Colorectal Carcinoma)
Outline: as §1

[14] = tested on: SW1271 (Small Cell Lung Carcinoma)
Outline: as §1

[15] = tested on: CAL-54 (Kidney Carcinoma)
Outline: as §1

[16] = tested on: OC-314 (Ovarian Carcinoma)
Outline: as §1

SMILES | Bliss excess [1] | Bliss excess [2] | Bliss excess [3] | Bliss excess (NCI-H28 (Mesothelioma)) | Bliss excess [4] | Bliss excess [5] | Bliss excess [6] | Bliss excess [7] | Bliss excess [8] | Bliss excess (NB14 (Neuroblastoma)) | Bliss excess [9] | Bliss excess [10] | Bliss excess (SH-4 (Melanoma)) | Bliss excess (Mewo (Melanoma)) | Bliss excess [11] | Bliss excess [12] | Bliss excess [13] | Bliss excess [14] | Bliss excess [15] | Bliss excess [16]
N#Cc1cnc(Nc2cc(NC[C@H]3CNCCO3)c(C(F)(F)F)cn2)cn1 [SRA737] + O=c1[nH]cc(F)c(=O)[nH]1 [5-Fluorouracil] (first compound max 10 µM, 7x7, partner max 20 µM) | 0.0112 | 0.0169 | -0.0379 | -0.0043 | 0.0058 | -0.0338 | -0.0459 | -0.0461 | -0.003 | 0.0321 | 0.0881 | 0.0479 | -0.0344 | -0.0136 | -0.0597 | 0.0048 | 0.0238 | -0.0472 | -0.0373 | 0.114
C=CCn1c(=O)c2cnc(Nc3ccc(N4CCN(C)CC4)cc3)nc2n1-c1cccc(C(C)(C)O)n1 [AZD1775] + Nc1ccn([C@@H]2O[C@H](CO)[C@@H](O)C2(F)F)c(=O)n1 [Gemcitabine] (first compound max 1 µM, partner max 0.3 µM) | -0.047 | -0.0304 | 0.0187 | -0.0576 | 0.0252 | -0.0552 | -0.0194 | -0.0754 | -0.0197 | – | 0.148 | -0.0588 | -0.0092 | -0.0623 | -0.0635 | -0.0367 | -0.0005 | -0.0558 | -0.0031 | 0.0576
C[C@@H](Nc1cc(F)cc(F)c1)c1cc(C(=O)N(C)C)cc2c(=O)cc(N3CCOCC3)oc12 [AZD8186] + CC(=O)c1c(C)c2cnc(Nc3ccc(N4CCNCC4)cn3)nc2n(C2CCCC2)c1=O [Palbociclib] (first compound max 10 µM, 7x7, partner max 10 µM) | -0.0616 | -0.025 | 0.0281 | -0.0333 | 0.0121 | -0.0262 | -0.0142 | 0.0121 | -0.0073 | 0.075 | 0.0396 | -0.0559 | -0.0303 | -0.0155 | -0.0454 | 0.0559 | -0.0314 | 0.0035 | 0.0039 | 0.0774
Cc1c2c(nn1C)CSCc1cc(n(C)n1)CSc1cc(c3ccccc3c1)OCCCc1c(C(=O)O)n(C)c3c-2c(Cl)ccc13 [AZD5991] + CC(=O)O[C@H]1C(=O)[C@@]2(C)[C@H]([C@H](OC(=O)c3ccccc3)[C@]3(O)C[C@H](OC(=O)[C@H](O)[C@@H](NC(=O)c4ccccc4)c4ccccc4)C(C)=C1C3(C)C)[C@]1(OC(C)=O)CO[C@@H]1C[C@@H]2O [Paclitaxel] (first compound max 1 µM, 7x7, partner max 3 µM) | -0.0847 | -0.0361 | -0.003 | -0.0549 | 0.115 | 0.149 | -0.0361 | -0.0504 | -0.0139 | -0.0212 | 0.0162 | -0.0006 | -0.0331 | 0.0103 | -0.028 | 0.0203 | -0.122 | -0.0228 | -0.0639 | -0.0078
C[C@@H](Oc1cc(-c2cnn(C3CCNCC3)c2)cnc1N)c1c(Cl)ccc(F)c1Cl [Crizotinib] + CC1=C(C(=CC=C1)Cl)NC(=O)C2=CN=C(S2)NC3=CC(=NC(=N3)C)N4CCN(CC4)CCO [Dasatinib] (first compound max 10 µM, 7x7, partner max 2 µM) | -0.009 | -0.0489 | 0.0526 | 0.0073 | 0.0685 | -0.0798 | -0.0107 | 0.0403 | 0.0471 | -0.0123 | 0.0179 | -0.0481 | -0.0674 | -0.0156 | 0.0301 | 0.0106 | -0.121 | 0.0464 | -0.033 | 0.032
CC1(C)CCC(CN2CCN(c3ccc(C(=O)NS(=O)(=O)c4ccc(NCC5CCOCC5)c([N+](=O)[O-])c4)c(Oc4cnc5[nH]ccc5c4)c3)CC2)=C(c2ccc(Cl)cc2)C1 [Venetoclax] + CS(=O)(=O)CCNCc1ccc(-c2ccc3ncnc(Nc4ccc(OCc5cccc(F)c5)c(Cl)c4)c3c2)o1 [Lapatinib] (first compound max 1 µM, 7x7, partner max 10 µM) | -0.0249 | -0.0061 | -0.02 | -0.0426 | -0.0457 | -0.0492 | -0.0404 | 0.0391 | 0.0423 | 0.0606 | -0.0371 | -0.0262 | -0.0489 | -0.0949 | -0.0032 | -0.0366 | -0.0768 | -0.0239 | -0.0788 | 0.0051
